Assay: xn = mol fraction of the nth substance listed
Details: Liquid, Static

CCCCCCCCCCn1cc[n+](C)c1.O=S(=O)([N-]S(=O)(=O)C(F)(F)F)C(F)(F)F + O=C=O
Details | molar volume [m3/mol]
298.15 K, 1474 kPa, x2 = 0.35 | 0.0002775
298.15 K, 2828 kPa, x2 = 0.562 | 0.0001997
298.15 K, 4516 kPa, x2 = 0.709 | 0.000147
298.15 K, 6799 kPa, x2 = 0.81 | 0.0001111
298.15 K, 8659 kPa, x2 = 0.83 | 0.0001006
298.15 K, 10909 kPa, x2 = 0.841 | 9.556e-05
298.15 K, 12873 kPa, x2 = 0.848 | 9.235e-05
298.15 K, 14847 kPa, x2 = 0.849 | 9.169e-05
323.15 K, 1439 kPa, x2 = 0.257 | 0.0003212
323.15 K, 3371 kPa, x2 = 0.489 | 0.0002347
323.15 K, 6891 kPa, x2 = 0.696 | 0.0001569
323.15 K, 8581 kPa, x2 = 0.752 | 0.0001354
323.15 K, 10917 kPa, x2 = 0.8 | 0.0001145
323.15 K, 13030 kPa, x2 = 0.814 | 0.0001086
323.15 K, 14596 kPa, x2 = 0.819 | 0.0001071
343.15 K, 2003 kPa, x2 = 0.302 | 0.0003089
343.15 K, 3941 kPa, x2 = 0.475 | 0.0002428
343.15 K, 6242 kPa, x2 = 0.587 | 0.0002017
343.15 K, 8674 kPa, x2 = 0.683 | 0.000164
343.15 K, 10773 kPa, x2 = 0.744 | 0.0001384
343.15 K, 12515 kPa, x2 = 0.776 | 0.0001249
343.15 K, 14534 kPa, x2 = 0.801 | 0.000113

CCCCCC[n+]1ccn(C)c1.O=S(=O)([N-]S(=O)(=O)C(F)(F)F)C(F)(F)F + O=C=O
Details | molar volume [m3/mol]
298.15 K, 2015 kPa, x2 = 0.396 | 0.0002205
298.15 K, 3586 kPa, x2 = 0.592 | 0.000163
298.15 K, 6489 kPa, x2 = 0.762 | 0.0001127
298.15 K, 8967 kPa, x2 = 0.8 | 9.883e-05
298.15 K, 10321 kPa, x2 = 0.81 | 9.556e-05
298.15 K, 11969 kPa, x2 = 0.819 | 9.198e-05
298.15 K, 13525 kPa, x2 = 0.822 | 9.084e-05
298.15 K, 14804 kPa, x2 = 0.823 | 9.095e-05
323.15 K, 800 kPa, x2 = 0.139 | 0.0003082
323.15 K, 3716 kPa, x2 = 0.487 | 0.0002013
323.15 K, 5430 kPa, x2 = 0.583 | 0.0001725
323.15 K, 6560 kPa, x2 = 0.637 | 0.0001568
323.15 K, 8039 kPa, x2 = 0.692 | 0.0001395
323.15 K, 9078 kPa, x2 = 0.726 | 0.0001282
323.15 K, 9969 kPa, x2 = 0.751 | 0.000118
323.15 K, 11081 kPa, x2 = 0.769 | 0.0001108
323.15 K, 12224 kPa, x2 = 0.774 | 0.0001094
323.15 K, 12959 kPa, x2 = 0.779 | 0.0001079
343.15 K, 1793 kPa, x2 = 0.14 | 0.0003081
343.15 K, 2754 kPa, x2 = 0.239 | 0.0002782
343.15 K, 5537 kPa, x2 = 0.436 | 0.0002194
343.15 K, 8861 kPa, x2 = 0.596 | 0.0001701
343.15 K, 11560 kPa, x2 = 0.673 | 0.0001447
343.15 K, 14469 kPa, x2 = 0.721 | 0.0001282
343.15 K, 19818 kPa, x2 = 0.755 | 0.0001169
343.15 K, 24708 kPa, x2 = 0.771 | 0.0001115

CCn1cc[n+](C)c1.O=S(=O)([N-]S(=O)(=O)C(F)(F)F)C(F)(F)F + O=C=O
Details | molar volume [m3/mol]
298.15 K, 1235 kPa, x2 = 0.28 | 0.000204
298.15 K, 3254 kPa, x2 = 0.533 | 0.0001415
298.15 K, 6471 kPa, x2 = 0.747 | 9.622e-05
298.15 K, 10194 kPa, x2 = 0.767 | 9.034e-05
298.15 K, 11608 kPa, x2 = 0.777 | 8.747e-05
298.15 K, 13084 kPa, x2 = 0.781 | 8.646e-05
298.15 K, 14794 kPa, x2 = 0.782 | 8.625e-05
323.15 K, 2005 kPa, x2 = 0.302 | 0.0002021
323.15 K, 4250 kPa, x2 = 0.483 | 0.0001607
323.15 K, 6213 kPa, x2 = 0.587 | 0.0001367
323.15 K, 8156 kPa, x2 = 0.657 | 0.0001197
323.15 K, 10081 kPa, x2 = 0.711 | 0.0001049
323.15 K, 12307 kPa, x2 = 0.743 | 9.597e-05
323.15 K, 14625 kPa, x2 = 0.749 | 9.492e-05
343.15 K, 2182 kPa, x2 = 0.247 | 0.0002186
343.15 K, 4070 kPa, x2 = 0.416 | 0.0001777
343.15 K, 6063 kPa, x2 = 0.509 | 0.0001559
343.15 K, 7999 kPa, x2 = 0.579 | 0.0001394
343.15 K, 9938 kPa, x2 = 0.636 | 0.0001249
343.15 K, 12143 kPa, x2 = 0.684 | 0.0001117
343.15 K, 14682 kPa, x2 = 0.709 | 0.0001056

Source: the NIST ThermoML archive (doi:10.1016/j.jct.2009.08.018)
